Reference: publication PMC9367601 (Cancers, 2022)

target: T1, Epidermal Growth Factor Receptor (EGFR), extracellular domain (EGFR-ECD) (Homo sapiens, UniProt P00533); test: cell-based; set-up: DiscoverX PathHunter EGFR dimerization/activation assay, chemiluminescence; settings: not given
T1 construct: full-length EGFR in DiscoverX PathHunter enzyme-complementation cells, EGF-stimulated
Experimental: The inhibition of the EGFR dimerization assay was conducted using the PathHunter kit following the producer instructions and with cetuximab as a positive control. For IC50 determination, the selected compounds were tested at different concentration (range 0.1–100 µM) and the IC50 values were calculated by the four parameters logistic (4-PL) model. Evaluation was based on means from at least four independent experiments. The discovery of orally available small molecules able to impair the EGFR activation targeting the extracellular domain could be of great interest for cancer treatment. To pursue this goal, a suitable high/medium throughput screening method is required. In this respect, a commercially available kit (PathHunter® from DiscoverX©; San Francisco, CA, USA) for the screening of compounds able to prevent EGFR activation (either dimerization or autophosphorylation) has been developed in recent years. This assay measures the chemiluminescent signal produced as a consequence of ligand-induced dimerization/activation of EGFR [16]. Our interest in kinase inhibitors and the readily availability of such kit prompted us to start a campaign for the discovery of small molecules targeting the extracellular domain of EGFR.

T1 sequence (P00533 25-1210): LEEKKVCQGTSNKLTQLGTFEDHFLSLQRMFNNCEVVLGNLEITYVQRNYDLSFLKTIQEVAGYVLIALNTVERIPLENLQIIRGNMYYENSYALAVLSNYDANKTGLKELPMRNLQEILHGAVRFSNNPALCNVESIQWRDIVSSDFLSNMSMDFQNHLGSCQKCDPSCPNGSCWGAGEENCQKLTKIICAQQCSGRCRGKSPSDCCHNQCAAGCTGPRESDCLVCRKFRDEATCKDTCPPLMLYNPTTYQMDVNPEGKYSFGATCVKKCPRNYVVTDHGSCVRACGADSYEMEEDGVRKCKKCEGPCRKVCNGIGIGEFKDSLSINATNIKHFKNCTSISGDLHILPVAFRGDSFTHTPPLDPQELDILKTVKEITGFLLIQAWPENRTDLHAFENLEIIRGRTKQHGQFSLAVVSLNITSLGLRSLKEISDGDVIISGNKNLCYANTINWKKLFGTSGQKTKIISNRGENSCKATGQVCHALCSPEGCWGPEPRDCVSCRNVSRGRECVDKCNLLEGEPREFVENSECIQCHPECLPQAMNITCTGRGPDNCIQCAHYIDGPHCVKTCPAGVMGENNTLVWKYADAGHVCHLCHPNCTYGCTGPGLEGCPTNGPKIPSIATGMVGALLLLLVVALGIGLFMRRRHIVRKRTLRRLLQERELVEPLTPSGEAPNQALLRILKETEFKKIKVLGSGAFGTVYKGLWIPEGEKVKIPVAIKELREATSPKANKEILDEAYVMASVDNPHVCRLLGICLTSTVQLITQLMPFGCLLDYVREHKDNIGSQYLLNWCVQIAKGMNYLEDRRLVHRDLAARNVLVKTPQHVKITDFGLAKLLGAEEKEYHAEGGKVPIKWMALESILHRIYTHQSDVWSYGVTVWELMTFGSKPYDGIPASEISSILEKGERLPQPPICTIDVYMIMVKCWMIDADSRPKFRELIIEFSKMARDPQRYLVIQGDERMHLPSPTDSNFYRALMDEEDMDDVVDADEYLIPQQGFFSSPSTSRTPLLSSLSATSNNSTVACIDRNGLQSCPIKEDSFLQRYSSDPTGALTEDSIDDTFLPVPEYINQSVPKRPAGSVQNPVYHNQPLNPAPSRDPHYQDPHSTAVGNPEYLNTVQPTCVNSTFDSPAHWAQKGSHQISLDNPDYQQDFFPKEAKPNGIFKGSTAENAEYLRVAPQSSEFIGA

| Compound | inhibition at 10 µM [%] | inhibition at 50 µM [%] |
| --- | --- | --- |
| COc1ccc2c(C)c(CCC(=O)Nc3ccc(C(=O)O)cc3)c(=O)oc2c1 [DSF045] | 0 | 0 |
| Cc1c(CC(=O)Nc2ccc(C(N)=O)cc2)c(=O)oc2c(C)c3oc4c(c3cc12)CCCC4 [DSF053] | 39 ± 5 | 43 ± 1 |
| Cc1c(CC(=O)Nc2cccc(O)c2)c(=O)oc2c(C)c3oc4c(c3cc12)CCCC4 [DSF050] | 24 ± 4 | 32 ± 2 |
| Cc1c(C)c2cc3c4c(oc3c(O)c2oc1=O)CCCC4 [DSF054] | 8 ± 4 | 46 ± 4 |
| O=C(CN1CCCCC1)Nc1ccc(NC(=O)CN2CCCCC2)c2c1C(=O)c1c(O)ccc(O)c1C2=O [DSF019] | 35 ± 5 | 33 ± 1 |
| CC(NC(=O)C(NC(=O)OCc1ccccc1)C(C)C)C(=O)OCCCCCNc1ccc(NCCCCCOC(=O)C(C)NC(=O)C(NC(=O)OCc2ccccc2)C(C)C)c2c1C(=O)c1ccccc1C2=O (centres unmarked) [DSF012] | 0 | 20 ± 5 |
| c1ccc2c(CN3CCCCC3)c3ccccc3c(CN3CCCCC3)c2c1 [DSF007] | 16 ± 4 | 16 ± 4 |
| CC(NC(=O)C(NC(=O)OCc1ccccc1)C(C)C)C(=O)OCCCCCNc1ccc(NCCCCCO)c2c1C(=O)c1ccccc1C2=O (centres unmarked) [DSF013] | 0 | 0 |
| CC(=O)Nc1ccc(NC(=O)Cc2c(C)c3cc4c5c(oc4c(C)c3oc2=O)CCCC5)cc1 [DSF052] | 41 ± 4 | 49 ± 2 |
| COc1ccc2c(C)c(CCC(=O)Nc3ccc(C(=O)O)cc3)c(=O)oc2c1C [DSF044] | 0 | 0 |
| COc1cccc(Nc2nc(O)c3cc(-c4c(Cl)cccc4Cl)c(=O)oc3n2)c1 [DSF034] | 14 ± 2 | 0 |
| Cc1c(CC(=O)Nc2ccc(NS(C)(=O)=O)cc2)c(=O)oc2c(C)c3oc4c(c3cc12)CCCC4 [DSF051] | 40 ± 1 | 50 ± 1 |
| Cc1nc(Cl)cc(Nc2ncc(C(=O)O)s2)n1 [DSF060] | 0 | 0 |
| COc1cccc(Nc2nc(N(C)C)c3cc(-c4c(Cl)cccc4Cl)c(=O)oc3n2)c1 [DSF033] | 0 | 12 ± 3 |
| Cc1c(CCC(=O)Nc2cccc(C(=O)O)c2)c(=O)oc2nc3oc4c(c3cc12)CCCC4 [DSF049] | 35 ± 2 | 36 ± 3 |
| O=C(CN1CCOCC1)Nc1ccc(NC(=O)CN2CCOCC2)c2c1C(=O)c1c(O)ccc(O)c1C2=O [DSF020] | 33 ± 5 | 29 ± 1 |
| O=[N+]([O-])c1cc(Cl)ccc1S(=O)(=O)N1CCOCC1 [DSF089] | 20 ± 5 | 22 ± 4 |

| Compound | inhibition at 10 µM [%] | inhibition at 50 µM [%] |
| --- | --- | --- |
| Cc1oc2c(C)c3oc(=O)c(CC(=O)NCc4ccccc4Cl)c(C)c3cc2c1C [DSF055] | 46 ± 1 | 46 ± 5 |
| COc1ccc(OC)c(NS(=O)(=O)c2ccc(Cl)cc2[N+](=O)[O-])c1 [DSF088] | 0 | 22 ± 3 |
| CS(=O)(=O)Nc1ccc(NC(=O)c2ccc3c(c2)C(=O)c2c(NCCOCCN)ccc(NCCOCCN)c2C3=O)cc1 [DSF009] | 8 ± 1 | 48 ± 1 |
| COC(=O)Cc1c(C)c2ccc(O)cc2oc1=O [DSF042] | 0 | 0 |
| O=C(O)c1ccc(NS(=O)(=O)c2ccc(Cl)cc2[N+](=O)[O-])cc1 [DSF084] | 19 ± 2 | 29 ± 3 |
| C=CCOc1cccc2c1C(=O)c1cccc(OCC=C)c1C2=O [DSF014] | 0 | 0 |
| O=C(O)COCC(=O)OCc1cc(O)c2c(c1)C(=O)c1cccc(O)c1C2=O [DSF011] | 9 ± 5 | 39 ± 1 |
| COc1ccc2c(C)c(CC(=O)Nc3cccc(C(=O)O)c3)c(=O)oc2c1C [DSF047] | 0 | 0 |
| CN1CCN(c2ncnc3oc(=O)c(-c4c(Cl)cccc4Cl)cc23)CC1 [DSF039] | 0 | 10 ± 2 |
| Nc1ccc2cc3cc(N)ccc3cc2c1 [DSF001] | 0 | 0 |
| O=C(O)Cc1ccc(S(=O)(=O)Nc2ccccc2)cc1 [DSF081] | 21 ± 5 | 26 ± 1 |
| COc1cccc(Nc2nc(O)c3cc(-c4cc(OC)cc(OC)c4)c(=O)oc3n2)c1 [DSF035] | 0 | 0 |
| Cc1cccc(Nc2ncnc3oc(=O)c(-c4c(Cl)cccc4Cl)cc23)c1 [DSF038] | 0 | 24 ± 5 |
| c1ccc2c(CN3CCOCC3)c3ccccc3c(CN3CCOCC3)c2c1 [DSF006] | 19 ± 1 | 27 ± 4 |
| O=[N+]([O-])c1cc(Cl)ccc1S(=O)(=O)N1CCCCC1 [DSF090] | 12 ± 2 | 19 ± 1 |
| O=C(CN1CCOCC1)Nc1ccc(NC(=O)CN2CCOCC2)c2c1C(=O)c1ccccc1C2=O [DSF018] | 16 ± 3 | 38 ± 5 |

More lines, now with the values ahead:

| inhibition at 10 µM [%] | inhibition at 50 µM [%] | Compound |
| --- | --- | --- |
| 39 ± 4 | 48 ± 1 | CN(C)CCNc1ccc(F)c2c1C(=O)c1ccccc1C2=O [DSF015] |
| 0 | 0 | Brc1cccc(-c2cc(-c3ccccc3)ncn2)c1 [DSF028] |
| 25 ± 2 | 18 ± 4 | COc1ccc(/C=C2/N=C(c3ccccc3)OC2=O)cc1 [DSF076] |
| 23 ± 1 | 36 ± 3 | CN(C)c1ccc(/C=C2/N=C(c3ccccc3)OC2=O)cc1 [DSF073] |
| 6 ± 5 | 34 ± 1 | O=C(O)c1ccc(-c2cc(-c3cccc(C(F)(F)F)c3)ncn2)cc1 [DSF025] |
| 0 | 22 ± 5 | CCc1cnc(Oc2cccc(NC(=S)NC(=O)c3ccccc3)c2)nc1 [DSF065] |
| 0 | 0 | Cc1ccc([N+](=O)[O-])cc1Nc1nccc(-c2cccnc2)n1 [DSF059] |
| 0 | 0 | O=c1oc2nc(Nc3cccc(-c4ccccc4)c3)nc(O)c2cc1-c1cccc(Br)c1 [DSF041] |
| 7 ± 1 | 37 ± 4 | CC(=O)Nc1ccc(/C=C2/N=C(c3cccnc3Cl)OC2=O)cc1 [DSF078] |
| 20 ± 4 | 1 ± 1 | O=C(NC(=O)c1ccccc1)Nc1cccc(Oc2ncc(Cl)cn2)c1 [DSF061] |
| 33 ± 5 | 25 ± 3 | O=C1c2ccccc2C(=O)c2c(NCCNCCO)ccc(F)c21 [DSF016] |
| 10 ± 3 | 48 ± 2 | O=C1OC(c2ccccc2)=N/C1=C/c1cnc2ccccc2c1 [DSF074] |
| 42 ± 5 | 42 ± 1 | O=C(O)Cc1ccc(/N=C2/C(=O)Nc3ccccc32)cc1 [DSF067] |
| 0 | 0 | c1ccc(-c2cccc(-c3cc(-c4ccccc4)ncn3)c2)cc1 [DSF027] |
| 16 ± 4 | 39 ± 2 | COc1cc(/C=C2/N=C(c3ccccc3)OC2=O)ccc1OC(C)=O [DSF072] |
| 0 | 0 | CC(=O)c1cccc2cc3c(C(C)=O)cccc3cc12 [DSF002] |
| 12 ± 4 | 40 ± 5 | O=c1oc2ncnc(Nc3cccc(-c4ccccc4)c3)c2cc1-c1c(Cl)cccc1Cl [DSF037] |
| 18 ± 5 | 34 ± 4 | O=C1OC(c2ccccc2)=N/C1=C/c1ccc[nH]1 [DSF075] |
| 0 | 0 | CCc1cnc(Oc2cccc(NC(=O)NC(=O)c3ccccc3[N+](=O)[O-])c2)nc1 [DSF066] |
| 35 ± 5 | 50 ± 1 | ClCc1c2ccccc2c(CCl)c2ccccc12 [DSF003] |
| 7 ± 1 | 39 ± 1 | CC(=O)n1cc(/C=C2/N=C(c3ccccc3)OC2=O)c2ccccc21 [DSF077] |
| 27 ± 5 | 56 ± 2 | O=C1Nc2ccccc2/C1=N\c1cccc(C(F)(F)F)c1 [DSF069] |
| 22 ± 1 | 8 ± 2 | Nc1cccc(-c2cc(-c3ccc(C(=O)O)cc3)ncn2)c1 [DSF023] |
| 0 | 1 ± 4 | O=C(O)c1cccc2cc3c(C(=O)O)cccc3cc12 [DSF005] |
| 16 ± 1 | 5 ± 3 | O=C(O)c1ccc(-c2cc(-c3cccc(C(F)(F)F)c3)nc(O)n2)cc1 [DSF024] |
| 0 | 5 ± 5 | O=C(NC(=O)c1ccccc1[N+](=O)[O-])Nc1cccc(Oc2ncc(Cl)cn2)c1 [DSF063] |
| 0 | 0 | CCc1cnc(Oc2cccc(NC(=O)NC(=O)c3ccccc3)c2)nc1 [DSF064] |
| 1 ± 4 | 0 | O=C(O)c1ccc(-c2ccc(-c3ccccc3)cc2O)cc1 [DSF029] |
| 37 ± 5 | 56 ± 4 | O=C(O)Cc1ccc(/N=C2/C(=O)Nc3ccc(Br)cc32)cc1 [DSF068] |
| 0 | 3 ± 5 | CSc1cccc(Nc2ccc3cc(-c4cccs4)c(=O)oc3n2)c1 [DSF032] |

same assay, conditions: inhibitor; % inhibition @ 10 uM, 10 µM

| % inhibition @ 10 uM [%] | Compound |
| --- | --- |
| 36 ± 4 | Cc1cccc(C)c1NS(=O)(=O)c1ccc(CC(=O)O)cc1 [DSF083] |

same assay, conditions: inhibitor; % inhibition @ 50 uM, 50 µM

| % inhibition @ 50 uM [%] | Compound |
| --- | --- |
| 49 ± 3 | Cc1cccc(C)c1NS(=O)(=O)c1ccc(CC(=O)O)cc1 [DSF083] |
